Data taken from US8119589B2, “Modulation of CD4+ T cell responses by a tick saliva protein, Salp15 and polypeptides derived therefrom” (University of North Carolina at Charlotte, priority 2004, dated 2012).

Tests used:
CD4 on HeLa-CD4 cells = biological target: T1, CD4 on HeLa-CD4 cells (Homo sapiens, UniProt P01730); assay: Salp15488 binding to HeLa-CD4 and HeLa cells (flow cytometry, confocal microscopy)
T1 construct: host or cells: HeLa
Method: For colocalization experiments, Jurkat and CD4^+ T cells were cytospun as described herein. HeLa and HeLa-CD4 cells were grown on chamber slides. The cells were fixed and stained with anti-CD4 and Salp15 as follows. Purified Salp15 was labeled using Alexa-488 with the Protein Labeling Kit (Molecular Probes) according to the manufacturer's instructions. Fixed cells were blocked with 5% normal serum and anti-CD16/CD32 (1:100) in PBS, incubated with 1 μg of monoclonal biotinylated anti-CD4 (L3T4) (BD Biosciences Pharmingen) followed by streptavidin594 staining. The cells were then stained with 20 μg/mL of Salp15488. For competition assays, cells were first blocked with 5% normal serum, incubated with either polyclonal anti-CD4 antibody, MT310, OKT4, normal rabbit IgG, Salp15 (0.5 mg/mL) or lysozyme (0.5 mg/mL) followed by staining with Salp15488. All samples were mounted in a GVA Mount (Zymed, San Francisco, Calif., U.S.A.) and visualized with an Olympus Confocal microscope equipped with Fluoview 3.0 software.
Actin polymerization assay was performed as described earlier (Krishnan et al., 2004). […] The cells were washed, resuspended in PBS and analyzed for F-actin content on a FACSCalibur with CellQuest software (Beckton Dickinson, Mountain View, Calif., U.S.A.). […] The cells were washed twice with PBS and analyzed by flow cytometry.

mouse CD4+ T lymphocytes = assay: TCR ligation-induced protein tyrosine phosphorylation in anti-CD3/CD28 stimulated CD4+ T cells (immunoblotting, confocal microscopy); type: cell-based
Method: Naïve CD4+ T cells from C3H/HeN, Balb/c, and B10.BR mice were purified as previously described (Anguita et al., 2002). CD4+ T cells were preincubated in Click's modified Bruff's Medium (Sigma Chemical Co., St. Louis, Mo., U.S.A.) for 10 minutes at 37° C. with and without Salp15 (50 μg/mL) and stimulated for 20 min or the indicated times at 37° C. with 10 μg/mL of anti-CD3ε, 1 μg/mL of anti-CD28, and 10 μg/mL of anti-armenian and syrian hamster IgG (BD Biosciences Pharmingen, San Jose, Calif., U.S.A.). Jurkat (E6-1) cells were stimulated using 5 μg/mL of OKT3 mAb (eBioscience, San Diego, Calif., U.S.A.) and 1 μg/mL of anti-human CD28 cross linked with 5 μg/mL anti-mouse IgG for the indicated times.
For the visualization of lipid rafts, phospho-tyrosine, and cytoskeleton reorganization, CD4^+, CD8^+ or Jurkat cells were cytospun for 10 minutes at 1000 RPM onto positively charged microslides (Fisher Scientific, Hampton, N.H., U.S.A.). The cells were fixed with 3.7% paraformaldehyde (Sigma Chemical Co.) for 15 minutes and stained with CTB594 (Molecular Probes, Eugene, Oreg., U.S.A.), AlexaFluor488 labeled phalloidin (Molecular Probes) or (1:50) biotin-conjugated anti-p-Tyr (PY99) followed by Streptavidin-AlexaFluor594 (1:100, Molecular Probes). For p-LAT and p-PLCγ1 staining, fixed cells were treated with PBS containing 0.1% Triton-X 100 and 100 mM glycine for 15 min at room temperature and stained using rabbit p-LAT (Tyr^191) or rabbit anti-p-PLCγ1 (Tyr^783) probed with anti-rabbit IgG488 (Molecular Probes).
For tyrosine phosphorylation western analysis, cells were lysed in 60 mM Tris (pH 7.4) containing 150 mM NaCl, 5 mM EDTA, 1 mM EGTA, 1 mM β-glycerol phosphate, 2.5 mM sodium pyrophosphate, 25 mM NaF, 2 mM sodium orthovanadate, 1% Triton-X 100, 0.25% sodium deoxycholate, 1 mM PMSF and protease inhibitors for 15 min on ice, sonicated 4×5 sec and incubated at 37° C. for 10 min. The lysate was cleared by centrifugation and boiled in SDS-sample buffer. The samples were subjected to SDS-PAGE, transferred to a nitrocellulose membrane and immunoblotted with anti-pTyr, anti-pPLCγ1 and anti-Vav1, anti-pSrc family (Tyr^416) to measure p-Lck^394 (Alonso et al., 2004), anti-Lck, anti-pZap70 (Tyr^319), anti-Zap70, p44/42 and p44/42 (phopho-Tyr^204/Thr^202). Vav1 was immunoprecipitated using anti-Vav1 and protein A-agarose beads overnight, subjected to SDS-PAGE followed by immunoblotting with anti-pTyr or anti-Vav1. To examine the effect of Salp15 on T cell stimulation with INFγ, CD4^+ T cells were preincubated with Salp15 at 50 μg/mL followed by activation with 20 ng/mL of mouse recombinant INFγ (R & D Systems, Minneapolis, Minn., U.S.A.) for 30 min at 37° C. The cells were lysed as above and subjected to SDS-PAGE and immunoblotting with anti-pSTAT1 and anti-STAT1.
Quantification of immunoblots was performed using the SCION IMAGE™ software package, Scion Corporation (Frederick, Md., U.S.A.).

[1] = tested on: CD4+ T cells from DO11.10 transgenic mice; assay: IL-2 production by DO11.10 transgenic CD4+ T cells activated with ovalbumin and APCs; type: cell-based, mouse; details: 0.5, 5.0 and 50 μg/mL Salp15; ovalbumin; 72 hrs
Method: T-cells from CD4-deficient and B6 mice (The Jackson Laboratory, Bar Harbor, Me., U.S.A.) were purified by negative selection and activated for 72 hrs using 5 μg/ml of plate bound anti-CD3 and 1 μg/ml of anti-CD28 in the presence or absence of 50 μg/mL of Salp15. DO11.10 transgenic mouse (The Jackson Laboratory) CD4^+ T cells were purified by negative selection as before and incubated in the presence of 106/mL of syngeneic mitomycin C-treated (50 μg/ml for 40 min at 37° C.) antigen presenting cells (APCs) with 10 μg/mL of ovalbumin in the presence of 0.5, 5.0 and 50 μg/mL of Salp15 for 72 hrs. The supernatants were then collected and IL-2 measured by capture ELISA following the manufacturer's instruction (BD Biosciences Pharmingen).

[2] = Salp15 pretreatment, quantification of the specific bands

## Salp15: secreted salivary protein from Ixodes scapularis, SEQ ID NO: 2; recombinant His-tagged, produced in Drosophila S2 cells
CD4 on HeLa-CD4 cells; confocal microscopy
  Salp15 binding on untransfected HeLa cells: but not in untransfected cells
CD4 on HeLa-CD4 cells; flow cytometry
  Salp15 binding to HeLa-CD4 cells compared to non-transfected controls: increase
Mouse CD4+ T lymphocytes; Salp15 pretreatment (50 μg/mL), anti-CD3/CD28 stimulated, compared to control treated cells
  Reduction of PLCγ1 phosphorylation (Tyr783): 46%
Mouse CD4+ T lymphocytes; Salp15 pretreatment, Vav1 immunoprecipitation, anti-pTyr immunoblot
  Reduction in tyrosine phosphorylation of Vav1: ~58%
Mouse CD4+ T lymphocytes; Salp15 pretreatment, immunofluorescence
  Phosphorylation level of Lat at Tyr191: reduced
Mouse CD4+ T lymphocytes; [2]
  Reduction in tyrosine phosphorylation of Lck (Tyr394): about 56%
  Reduction in tyrosine phosphorylation of Zap70 (Tyr319): ~67%
Mouse CD4+ T lymphocytes; anti-CD3/CD28 stimulation
  ERK activation (ERK1/2 phosphorylation): does not impair
Mouse CD4+ T lymphocytes; no stimulation
  Lck phosphorylation in the absence of T cell stimulation: did not induce
[1]
  Inhibition of IL-2 production: dose dependent manner
